Measured values as given in US11787785B2 (NOVARTIS AG, priority 2021, dated 2023).

Biological target: T1, WIZ protein (HiBit-WIZ fusion protein) (Homo sapiens, UniProt O95785+Q96SW2)
T1 construct: expressed in transfected cells
Assay: Quantification of WIZ protein levels in HiBit tag fusion protein assay (WIZ HiBit assay in 293T cells)
Type: cell-based
Conditions: for Dmax at 25 µM / remaining activity at 25 µM: HEK-293T; for Dmax at 25 µM / % degradation of WIZ (100 − Amax): 100 − Amax, at 25 uM; for Dmax at 25 µM / remaining activity at 25 µM / % degradation of WIZ (100 − Amax) / WIZ Amax: 293T cells; for Dmax at 25 µM: read-out: % degradation of WIZ (100 − Amax); for remaining activity at 25 µM / WIZ Amax: DMSO-normalized, curve-fitted percentage of WIZ-HiBit remaining at 25 uM; for remaining activity at 25 µM: read-out: WIZ Amax; for DC50: WIZ HiBit assay in 293T cells, 10-point, 5-fold dose response, highest concentration 25 μM, about 18 hours, read-out: WIZ AC50
Procedure: The HiBit system from Promega was used to develop high-throughput and quantitative assays to measure changes in WIZ protein levels in response to compounds. The HiBit tag was derived from a split Nanoluciferase and has the following protein sequence: […] (SEQ ID NO: 1). The complementary fragment of Nanoluciferase (known as LgBit, from Promega), was added to the HiBit tag to form an active Nanoluciferase enzyme whose activity can be precisely measured. In this way, the levels of a fusion protein with the HiBit tag can be quantified in cell lysates.
Lentiviral vectors, based on the Invitrogen™ pLenti6.2/V5 DEST backbone were constructed that places the HiBit tag upstream of WIZ and expressed the fusion protein from an HSVTK promotor.
To ensure moderate and consistent expression of the HiBit-WIZ fusion protein across all cells in the population, stable cell lines were constructed from cells harboring a single copy of the construct. Lentivirus packaged with the constructs were made using the ViraPower™ kit from Invitrogen™. 293T cells from ATCC (Catalog number: CRL-3216), were infected with the virus at low multiplicity of infection and selected by 5 μg/mL blasticidin in culture media for 2 weeks.
The levels of HiBit-WIZ tagged fusion proteins in compound-treated cell lines were measured as follows:
On day 1, cells were diluted to 1.0×10^6 cells/ml in normal growth medium. 20 μL of cell suspension were plated in each well of a solid white 384-well plate. Plates were incubated overnight in a 37° C. and 5% CO2 humidified tissue culture incubator.
On day 2, serial dilutions of compounds were made in 384-well plates. Compound plates were set up with DMSO in columns 1, 2, 23, 24, and 10-point compound dilution series in column 3-12 and column 13-22. 10 mM stock solution of compound were placed into column 3 or 13 and a 1:5 serial dilution was carried out until there was a 10-point dilution series per compound. 50 nL of diluted compounds were transferred into the plated cells by Echo® (Labcyte) acoustic transfer. The highest concentration of compound was 25 μM. Plates were incubated overnight (about 18 hours) in a 37° C. and 5% CO2 humidified tissue culture incubator.
On day 3, plates were removed from the incubator and allowed to equilibrate at room temperature for 60 minutes. HiBit substrate (Nano-Glo® HiBit Lytic Detection System, Promega Catalogue number: N3050) was added as described by the manufacturers protocols. Plates were incubated at room temperature for 30 minutes and luminescence was read using an EnVision® reader (PerkinElmer®). Data was analyzed and visualized using the Spotfire® software package.
WIZ Degradation Activity of Compounds (Table 1)
WIZ Amax reflects the DMSO-normalized, curve-fitted percentage of WIZ-HiBit remaining at 25 uM. It was calculated by normalizing […] controls to 100%, parametric curve fitting of the dose response data (10-point, 5-fold), followed by calculation of response at 25 uM using the fitted equation (nd=not determined).

T1 sequence (O95785 whole entry, the tested form may be a part): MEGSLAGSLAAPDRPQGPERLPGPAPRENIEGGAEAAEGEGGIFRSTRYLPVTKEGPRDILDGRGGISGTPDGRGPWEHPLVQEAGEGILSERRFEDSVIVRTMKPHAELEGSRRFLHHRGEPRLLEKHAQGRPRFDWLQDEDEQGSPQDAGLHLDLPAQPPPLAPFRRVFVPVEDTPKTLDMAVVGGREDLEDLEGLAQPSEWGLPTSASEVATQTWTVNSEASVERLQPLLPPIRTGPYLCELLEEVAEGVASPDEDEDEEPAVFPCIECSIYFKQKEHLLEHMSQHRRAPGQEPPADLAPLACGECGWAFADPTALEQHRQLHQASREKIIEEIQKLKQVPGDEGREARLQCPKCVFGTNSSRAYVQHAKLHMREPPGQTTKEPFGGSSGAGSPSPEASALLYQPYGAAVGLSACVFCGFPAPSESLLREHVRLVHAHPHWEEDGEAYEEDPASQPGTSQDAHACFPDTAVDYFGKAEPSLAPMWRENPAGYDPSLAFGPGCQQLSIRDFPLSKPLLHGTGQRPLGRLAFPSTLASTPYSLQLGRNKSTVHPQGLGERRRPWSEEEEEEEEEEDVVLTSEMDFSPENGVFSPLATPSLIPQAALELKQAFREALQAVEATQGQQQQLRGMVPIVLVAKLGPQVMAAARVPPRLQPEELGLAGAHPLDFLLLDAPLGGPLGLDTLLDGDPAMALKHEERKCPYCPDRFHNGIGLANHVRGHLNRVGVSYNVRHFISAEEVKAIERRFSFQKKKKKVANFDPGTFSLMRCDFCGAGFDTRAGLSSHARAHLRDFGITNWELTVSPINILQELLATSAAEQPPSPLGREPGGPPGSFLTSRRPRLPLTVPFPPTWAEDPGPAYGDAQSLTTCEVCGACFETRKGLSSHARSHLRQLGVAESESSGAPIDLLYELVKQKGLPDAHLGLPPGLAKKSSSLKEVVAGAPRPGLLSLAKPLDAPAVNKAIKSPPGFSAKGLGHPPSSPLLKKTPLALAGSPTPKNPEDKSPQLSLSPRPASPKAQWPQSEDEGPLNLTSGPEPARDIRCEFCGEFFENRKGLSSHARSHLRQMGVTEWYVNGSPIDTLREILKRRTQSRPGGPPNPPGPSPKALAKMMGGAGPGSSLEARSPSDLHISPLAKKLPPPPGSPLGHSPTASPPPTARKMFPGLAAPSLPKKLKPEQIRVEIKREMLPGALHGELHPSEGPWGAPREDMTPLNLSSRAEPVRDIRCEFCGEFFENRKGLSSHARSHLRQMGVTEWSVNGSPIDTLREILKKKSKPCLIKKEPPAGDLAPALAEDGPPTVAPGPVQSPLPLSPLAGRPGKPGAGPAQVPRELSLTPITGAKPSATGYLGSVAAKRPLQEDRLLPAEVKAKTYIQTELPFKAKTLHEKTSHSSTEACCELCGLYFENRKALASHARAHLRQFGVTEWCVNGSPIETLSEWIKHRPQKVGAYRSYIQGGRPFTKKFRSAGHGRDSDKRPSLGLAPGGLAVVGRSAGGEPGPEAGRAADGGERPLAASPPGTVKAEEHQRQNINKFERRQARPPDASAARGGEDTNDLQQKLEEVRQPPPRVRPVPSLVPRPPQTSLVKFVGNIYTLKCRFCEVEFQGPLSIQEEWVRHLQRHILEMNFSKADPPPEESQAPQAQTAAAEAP
T1 sequence (Q96SW2 whole entry, the tested form may be a part): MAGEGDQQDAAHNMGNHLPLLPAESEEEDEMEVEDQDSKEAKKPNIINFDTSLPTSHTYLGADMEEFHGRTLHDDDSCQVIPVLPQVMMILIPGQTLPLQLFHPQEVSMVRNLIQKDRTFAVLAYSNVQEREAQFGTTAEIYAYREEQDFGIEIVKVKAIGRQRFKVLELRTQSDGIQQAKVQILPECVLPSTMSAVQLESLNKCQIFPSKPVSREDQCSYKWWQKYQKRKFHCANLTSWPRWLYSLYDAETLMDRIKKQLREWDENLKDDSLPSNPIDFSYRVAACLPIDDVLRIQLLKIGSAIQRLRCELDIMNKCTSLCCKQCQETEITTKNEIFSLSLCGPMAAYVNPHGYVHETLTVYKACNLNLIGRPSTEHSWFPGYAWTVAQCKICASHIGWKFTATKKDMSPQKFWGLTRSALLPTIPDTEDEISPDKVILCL
T1 sequence (Q16531 whole entry partner, the tested form may be a part): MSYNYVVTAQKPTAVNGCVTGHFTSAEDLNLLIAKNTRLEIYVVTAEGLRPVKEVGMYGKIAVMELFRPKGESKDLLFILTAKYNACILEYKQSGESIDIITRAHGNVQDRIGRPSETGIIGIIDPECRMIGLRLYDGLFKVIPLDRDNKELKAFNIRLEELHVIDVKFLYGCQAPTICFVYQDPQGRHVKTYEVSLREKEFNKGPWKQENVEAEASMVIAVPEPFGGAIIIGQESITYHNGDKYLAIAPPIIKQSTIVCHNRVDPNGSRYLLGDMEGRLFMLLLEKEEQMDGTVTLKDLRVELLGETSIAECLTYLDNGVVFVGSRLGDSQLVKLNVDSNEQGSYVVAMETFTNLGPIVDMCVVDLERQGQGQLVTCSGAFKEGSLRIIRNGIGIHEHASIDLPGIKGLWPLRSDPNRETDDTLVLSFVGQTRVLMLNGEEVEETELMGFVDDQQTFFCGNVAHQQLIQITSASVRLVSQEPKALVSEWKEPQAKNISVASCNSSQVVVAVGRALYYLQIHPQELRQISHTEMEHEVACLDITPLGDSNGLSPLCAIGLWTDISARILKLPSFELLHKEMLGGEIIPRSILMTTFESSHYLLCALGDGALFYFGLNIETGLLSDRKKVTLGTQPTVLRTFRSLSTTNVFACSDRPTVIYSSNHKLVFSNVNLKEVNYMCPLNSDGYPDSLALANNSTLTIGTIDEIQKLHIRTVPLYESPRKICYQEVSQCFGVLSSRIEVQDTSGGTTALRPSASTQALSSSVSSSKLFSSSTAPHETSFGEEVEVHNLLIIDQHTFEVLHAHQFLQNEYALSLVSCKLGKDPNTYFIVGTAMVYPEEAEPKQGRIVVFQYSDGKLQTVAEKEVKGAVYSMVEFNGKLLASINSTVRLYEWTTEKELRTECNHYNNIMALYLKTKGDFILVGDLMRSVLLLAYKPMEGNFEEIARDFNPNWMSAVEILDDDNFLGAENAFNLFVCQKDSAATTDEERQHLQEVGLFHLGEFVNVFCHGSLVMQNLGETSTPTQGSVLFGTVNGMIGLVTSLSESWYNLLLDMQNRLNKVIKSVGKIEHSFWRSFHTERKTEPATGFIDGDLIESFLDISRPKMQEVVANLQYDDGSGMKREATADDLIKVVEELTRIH

CC(C)CN1CC[C@H](Cc2ccn3ncc(N4CCC(=O)NC4=O)c3c2)C[C@@H]1C(F)(F)F (relative stereo) [Example 312, (cis)-1-(5-((1-isobutyl-2-(trifluoromethyl)piperidin-4-yl)methyl)pyrazolo[1,5-a]pyridin-3-yl)dihydropyrimidine-2,4(1H,3H)-dione]
Dmax at 25 µM: 44% | remaining activity at 25 µM: 56% | DC50: 370 nM

C[C@H]1C[C@@H](Cc2ccn3ncc(N4CCC(=O)NC4=O)c3c2)CCN1CC1CCCCC1 (single isomer, unassigned) [Example 71]
Dmax at 25 µM: 85% | remaining activity at 25 µM: 15% | DC50: 7 nM

C[C@H]1CC(F)(Cc2ccn3ncc(N4CCC(=O)NC4=O)c3c2)CCN1CC1CCC(F)(F)CC1 (single isomer, unassigned) [Example 308]
Dmax at 25 µM: 77% | remaining activity at 25 µM: 23% | DC50: 44 nM

C[C@H]1CC(F)(Cc2ccn3ncc(N4CCC(=O)NC4=O)c3c2)CCN1CC1CCC(F)(F)CC1 (single isomer, unassigned) [Example 309]
% degradation of WIZ (100 − Amax): 62% | WIZ Amax: 38% | DC50: 56 nM

C[C@H]1CC(F)(Cc2ccn3ncc(N4CCC(=O)NC4=O)c3c2)CCN1C1COC1 (single isomer, unassigned) [Example 310]
Dmax at 25 µM: 73% | remaining activity at 25 µM: 27% | DC50: 150 nM

C[C@H]1CC(F)(Cc2ccn3ncc(N4CCC(=O)NC4=O)c3c2)CCN1C1COC1 (single isomer, unassigned) [Example 311]
% degradation of WIZ (100 − Amax): 78% | WIZ Amax: 22% | DC50: 310 nM

O=C1CCN(c2cnn3ccc(CC4CCN(CC5CCCCC5)CC4)cc23)C(=O)N1 [Example 1, 1-(5-((1-(cyclohexylmethyl)piperidin-4-yl)methyl)pyrazolo[1,5-a]pyridin-3-yl)dihydropyrimidine-2,4(1H,3H)-dione]
Dmax at 25 µM: 91% | remaining activity at 25 µM: 9% | DC50: 20 nM

O=C1CCN(c2cnn3ccc(CC4CCN(CC5CCCC5)CC4)cc23)C(=O)N1 [Example 2, 1-(5-((1-(cyclopentylmethyl)piperidin-4-yl)methyl)pyrazolo[1,5-a]pyridin-3-yl)dihydropyrimidine-2,4(1H,3H)-dione]
Dmax at 25 µM: 91% | remaining activity at 25 µM: 9% | DC50: 23 nM

O=C1CCN(c2cnn3ccc(CC4CCN(CC5CCOCC5)CC4)cc23)C(=O)N1 [Example 3, 1-(5-((1-((tetrahydro-2H-pyran-4-yl)methyl)piperidin-4-yl)methyl)pyrazolo[1,5-a]pyridin-3-yl)dihydropyrimidine-2,4(1H,3H)-dione]
Dmax at 25 µM: 90% | remaining activity at 25 µM: 10% | DC50: 20 nM

O=C1CCN(c2cnn3ccc(CC4CCN(CC5CCC(F)(F)CC5)CC4)cc23)C(=O)N1 [Example 4, 1-(5-((1-((4,4-difluorocyclohexyl)methyl)piperidin-4-yl)methyl)pyrazolo[1,5-a]pyridin-3-yl)dihydropyrimidine-2,4(1H,3H)-dione]
Dmax at 25 µM: 90% | remaining activity at 25 µM: 10% | DC50: 5 nM

O=C1CCN(c2cnn3ccc(CC4CCN(CC5CC5)CC4)cc23)C(=O)N1 [Example 5, 1-(5-((1-(cyclopropylmethyl)piperidin-4-yl)methyl)pyrazolo[1,5-a]pyridin-3-yl)dihydropyrimidine-2,4(1H,3H)-dione]
Dmax at 25 µM: 89% | remaining activity at 25 µM: 11% | DC50: 204 nM

O=C1CCN(c2cnn3ccc(CC4CCN(CCC5CCCCC5)CC4)cc23)C(=O)N1 [Example 6, 1-(5-((1-(2-cyclohexylethyl)piperidin-4-yl)methyl)pyrazolo[1,5-a]pyridin-3-yl)dihydropyrimidine-2,4(1H,3H)-dione]
Dmax at 25 µM: 89% | remaining activity at 25 µM: 11% | DC50: 13 nM

O=C1CCN(c2cnn3ccc(CC4CCN(CC5CCCOC5)CC4)cc23)C(=O)N1 (stereo not drawn) [Example 7, 1-(5-((1-((tetrahydro-2H-pyran-3-yl)methyl)piperidin-4-yl)methyl)pyrazolo[1,5-a]pyridin-3-yl)dihydropyrimidine-2,4(1H,3H)-dione]
Dmax at 25 µM: 86% | remaining activity at 25 µM: 14% | DC50: 23 nM

O=C1CCN(c2cnn3ccc(CC4CCN(CC5CCCCCC5)CC4)cc23)C(=O)N1 [Example 8, 1-(5-((1-(cycloheptylmethyl)piperidin-4-yl)methyl)pyrazolo[1,5-a]pyridin-3-yl)dihydropyrimidine-2,4(1H,3H)-dione]
Dmax at 25 µM: 86% | remaining activity at 25 µM: 14% | DC50: 8 nM

CCC(C)CN1CCC(Cc2ccn3ncc(N4CCC(=O)NC4=O)c3c2)CC1 (stereo not drawn) [Example 9, 1-(5-((1-(2-methylbutyl)piperidin-4-yl)methyl)pyrazolo[1,5-a]pyridin-3-yl)dihydropyrimidine-2,4(1H,3H)-dione]
Dmax at 25 µM: 84% | remaining activity at 25 µM: 16% | DC50: 31 nM

CC(CN1CCC(Cc2ccn3ncc(N4CCC(=O)NC4=O)c3c2)CC1)C1CCCCC1 (stereo not drawn) [Example 10, 1-(5-((1-(2-cyclohexylpropyl)piperidin-4-yl)methyl)pyrazolo[1,5-a]pyridin-3-yl)dihydropyrimidine-2,4(1H,3H)-dione]
Dmax at 25 µM: 84% | remaining activity at 25 µM: 16% | DC50: 4 nM

O=C1CCN(c2cnn3ccc(CC4CCN(CCC5CCOCC5)CC4)cc23)C(=O)N1 [Example 11, 1-(5-((1-(2-(tetrahydro-2H-pyran-4-yl)ethyl)piperidin-4-yl)methyl)pyrazolo[1,5-a]pyridin-3-yl)dihydropyrimidine-2,4(1H,3H)-dione]
Dmax at 25 µM: 84% | remaining activity at 25 µM: 16% | DC50: 55 nM

CCCC(CCC)N1CCC(Cc2ccn3ncc(N4CCC(=O)NC4=O)c3c2)CC1 [Example 12, 1-(5-((1-(heptan-4-yl)piperidin-4-yl)methyl)pyrazolo[1,5-a]pyridin-3-yl)dihydropyrimidine-2,4(1H,3H)-dione]
Dmax at 25 µM: 84% | remaining activity at 25 µM: 16% | DC50: 51 nM

O=C1CCN(c2cnn3ccc(CC4CCN(CCC5CCC5)CC4)cc23)C(=O)N1 [Example 13, 1-(5-((1-(2-cyclobutylethyl)piperidin-4yl)methyl)pyrazolo[1,5-a]pyridin-3-yl)dihydropyrimidine-2,4(1H,3H)-dione]
Dmax at 25 µM: 84% | remaining activity at 25 µM: 16% | DC50: 19 nM

O=C1CCN(c2cnn3ccc(CC4CCN(CC5CCOC5)CC4)cc23)C(=O)N1 (stereo not drawn) [Example 14, 1-(5-((1-((tetrahydrofuran-3-yl)methyl)piperidin-4-yl)methyl)pyrazolo[1,5-a]pyridin-3-yl)dihydropyrimidine-2,4(1H,3H)-dione]
Dmax at 25 µM: 84% | remaining activity at 25 µM: 16% | DC50: 28 nM

O=C1CCN(c2cnn3ccc(CC4CCN(CC5CCCO5)CC4)cc23)C(=O)N1 (stereo not drawn) [Example 15, 1-(5-((1-((tetrahydrofuran-2-yl)methyl)piperidin-4-yl)methyl)pyrazolo[1,5-a]pyridin-3-yl)dihydropyrimidine-2,4(1H,3H)-dione]
Dmax at 25 µM: 71% | remaining activity at 25 µM: 29% | DC50: 523 nM

O=C1CCN(c2cnn3ccc(CC4CCN(CCC5CCCC5)CC4)cc23)C(=O)N1 [Example 16, 1-(5-((1-(2-cyclopentylethyl)piperidin-4-yl)methyl)pyrazolo[1,5-a]pyridin-3-yl)dihydropyrimidine-2,4(1H,3H)-dione]
Dmax at 25 µM: 84% | remaining activity at 25 µM: 16% | DC50: 18 nM

O=C1CCN(c2cnn3ccc(CC4CCN(CC5CCC5)CC4)cc23)C(=O)N1 [Example 18, 1-(5-((1-(cyclobutylmethyl)piperidin-4-yl)methyl)pyrazolo[1,5-a]pyridin-3-yl)dihydropyrimidine-2,4(1H,3H)-dione]
Dmax at 25 µM: 82% | remaining activity at 25 µM: 18% | DC50: 34 nM
